Literature values, collected in PMC12557437, “Research towards selective inhibition of the CLK3 kinase” (Beilstein Journal of Organic Chemistry, 2025).

Assays:
CLK3 [1] = details: human protein kinase; ref 17 (SM08502), 19 (T3), 20-21 (CX-4945), 24 (DB18); cited from earlier work
CLK1 [2] = details: human protein kinase; ref 17 (SM08502), 19 (T3), 20-21 (CX-4945), 24 (DB18); cited from earlier work
DYRK1B [3] = test system: DYRK1B; parameters: method as in earlier work; details: human protein kinase; ref 17 (SM08502), 19 (T3); cited from earlier work
CLK2 [4] = details: human protein kinase; ref 17 (SM08502), 19 (T3), 20-21 (CX-4945), 24 (DB18); cited from earlier work
DYRK1A [5] = details: human protein kinase; ref 17 (SM08502), 19 (T3), 20-21 (CX-4945), 24 (DB18); cited from earlier work
CLK4 [6] = molecular target: CLK4; parameters: method as in PMID 29769258; details: human protein kinase; cited from earlier work
CLK2 [7] = molecular target: CLK2; parameters: method as in PMID 29769258; details: human protein kinase; cited from earlier work
DYRK1A [8] = molecular target: DYRK1A; parameters: method as in PMID 29769258; details: human protein kinase; cited from earlier work
CLK3 [9] = molecular target: CLK3; parameters: method as in PMID 29769258; details: human protein kinase; cited from earlier work
CLK1 [10] = molecular target: CLK1; parameters: method as in PMID 29769258; details: human protein kinase; cited from earlier work
DYRK1B [11] = molecular target: DYRK1B; parameters: method as in PMID 29769258; details: human protein kinase; cited from earlier work
DYRK2 [12] = molecular target: DYRK2; parameters: method as in PMID 29769258; details: human protein kinase; cited from earlier work
Mm_CLK4 = Mm_CLK4 (Mus musculus, UniProt O35493); details: data taken from ref 23-24; cited from earlier work
Sequence of Mm_CLK4 (O35493 whole entry): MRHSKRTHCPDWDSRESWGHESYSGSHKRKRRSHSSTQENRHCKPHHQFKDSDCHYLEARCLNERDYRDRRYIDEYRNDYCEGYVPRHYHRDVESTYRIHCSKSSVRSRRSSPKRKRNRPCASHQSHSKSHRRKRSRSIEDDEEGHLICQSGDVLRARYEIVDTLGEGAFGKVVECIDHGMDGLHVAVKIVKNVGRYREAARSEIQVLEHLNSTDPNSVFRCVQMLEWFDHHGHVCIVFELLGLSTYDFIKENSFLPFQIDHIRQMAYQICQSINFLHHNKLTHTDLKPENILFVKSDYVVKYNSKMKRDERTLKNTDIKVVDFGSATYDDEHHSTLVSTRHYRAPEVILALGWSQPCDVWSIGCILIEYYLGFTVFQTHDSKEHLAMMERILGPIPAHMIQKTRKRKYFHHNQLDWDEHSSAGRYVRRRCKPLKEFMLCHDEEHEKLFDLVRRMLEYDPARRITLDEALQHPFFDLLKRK

Rn_DYRK1A = Rn_DYRK1A (Rattus norvegicus, UniProt Q63470); details: data taken from ref 23-24; cited from earlier work
DYRK2 [13] = test system: DYRK2; parameters: method as in PMID 31560935; details: human protein kinase; cited from earlier work
CLK4 [14] = details: human protein kinase; ref 17 (SM08502), 20-21 (CX-4945), 24 (DB18); cited from earlier work

In the case of `CN1CCN(C(=O)C(C)(C)c2ccc(C(=O)Nc3cn4cc(-c5ccncc5)ccc4n3)cc2)CC1` [Compound T3], the IC50 (CLK3 [1]) is given as 110 nM, the IC50 (CLK1 [2]) is given as 0.67 nM and the IC50 (DYRK1B [3]) is given as 230 nM. The IC50 (CLK2 [4]) was 15 nM and the IC50 (DYRK1A [5]) was 260 nM.
For `CNc1nc(NCc2cnccn2)c2c(-c3ccc4ncccc4c3)c[nH]c2n1` [Compound T-025], the Kd (CLK4 [6]) is listed as 0.61 nM, the Kd (CLK2 [7]) is listed as 0.096 nM and the Kd (DYRK1A [8]) is listed as 0.074 nM. The Kd (CLK3 [9]) was 6.5 nM, the Kd (CLK1 [10]) was 4.8 nM and the Kd (DYRK1B [11]) was 1.5 nM. For the same molecule, the Kd (DYRK2 [12]) was 32 nM.
In the case of `Cc1ccc(-n2cc(COc3cccc4cnc(Nc5cccc(Cl)c5)nc34)nn2)c([N+](=O)[O-])c1` [DB18], the IC50 (Mm_CLK4) is listed as 20 nM and the IC50 (Rn_DYRK1A) is listed as over 100000 nM.
For `CN1CCN(c2cc(C(=O)Nc3cc4cc(-c5cnn(C)c5)ccc4cn3)ccn2)CC1` [SM08502], the IC50 (CLK3 [1]) is given as 22 nM, the IC50 (CLK1 [2]) is given as 8 nM and the IC50 (DYRK1B [3]) is given as […]. The IC50 (DYRK2 [13]) was […], the IC50 (CLK2 [4]) was […] and the IC50 (CLK4 [14]) was 1 nM. For the same molecule, the IC50 (DYRK1A [5]) was 1 nM.
